Source: PMC3933419, “Synthesis and Properties of a Selective Inhibitor of Homeodomain–Interacting Protein Kinase 2 (HIPK2)” (PLoS ONE, 2014)

Experiments:
Experiment in all cases: Kinase panel selectivity profiling
Format in all cases: biochemical
BRSK2 = BRSK2 (Homo sapiens, UniProt Q8IWQ3); details: TBID 1 μM, 125 kinase panel, read-out: % activity of the enzyme
Description: (§1) The source of HIPK2 and of all of the other protein kinases used for specificity assays is as described elsewhere.
(§2) Conditions for the activity assays of all other protein kinases tested in selectivity experiments are as described or referenced in [9].

PKCz = PKCz (Homo sapiens, UniProt Q05513); details: TBID 1 μM, 125 kinase panel, read-out: % activity of the enzyme
Description: as §1, §2

EPH-B3 = EPH-B3 (Homo sapiens, UniProt P54753); details: TBID 1 μM, 125 kinase panel, read-out: % activity of the enzyme
Description: as §1, §2

PAK5 = PAK5 (Homo sapiens, UniProt Q9P286); details: TBID 1 μM, 125 kinase panel, read-out: % activity of the enzyme
Description: as §1, §2

JNK1 = JNK1 (Homo sapiens, UniProt P45983); details: TBID 1 μM, 125 kinase panel, read-out: % activity of the enzyme
Description: as §1, §2

TrkA = TrkA (Homo sapiens, UniProt P04629); details: TBID 1 μM, 125 kinase panel, read-out: % activity of the enzyme
Description: as §1, §2

EIF2AK3 = EIF2AK3 (Homo sapiens, UniProt Q9NZJ5); details: TBID 1 μM, 125 kinase panel, read-out: % activity of the enzyme
Description: as §1, §2

IKKb = IKKb (Homo sapiens, UniProt O14920); details: TBID 1 μM, 125 kinase panel, read-out: % activity of the enzyme
Description: as §1, §2

AMPK = details: TBID 1 μM, 125 kinase panel
Description: as §1, §2

IRR = IRR (Homo sapiens, UniProt P14616); details: TBID 1 μM, 125 kinase panel, read-out: % activity of the enzyme
Description: as §1, §2

HER4 = HER4 (Homo sapiens, UniProt Q15303); details: TBID 1 μM, 125 kinase panel, read-out: % activity of the enzyme
Description: as §1, §2

TSSK1 = TSSK1 (Homo sapiens, UniProt Q9BXA7); details: TBID 1 μM, 125 kinase panel, read-out: % activity of the enzyme
Description: as §1, §2

PIM3 = PIM3 (Homo sapiens, UniProt Q86V86); details: TBID 1 μM, 125 kinase panel, read-out: % activity of the enzyme
Description: as §1, §2

SYK = SYK (Homo sapiens, UniProt P43405); details: TBID 1 μM, 125 kinase panel, read-out: % activity of the enzyme
Description: as §1, §2

CHK1 = CHK1 (Homo sapiens, UniProt O14757); details: TBID 1 μM, 125 kinase panel, read-out: % activity of the enzyme
Description: as §1, §2

HIPK2 = molecular target: T1, HIPK2 (Homo sapiens, UniProt Q9H2X6)
T1 construct: The source of HIPK2 and of all of the other protein kinases used for specificity assays is as described elsewhere
Description: as §1, §2

MST4 = MST4 (Homo sapiens, UniProt Q9P289); details: TBID 1 μM, 125 kinase panel, read-out: % activity of the enzyme
Description: as §1, §2

TTK = TTK (Homo sapiens, UniProt P33981); details: TBID 1 μM, 125 kinase panel, read-out: % activity of the enzyme
Description: as §1, §2

PKBa = PKBa (Homo sapiens, UniProt P31749); details: TBID 1 μM, 125 kinase panel, read-out: % activity of the enzyme
Description: as §1, §2

CAMK1 = CAMK1 (Homo sapiens, UniProt Q14012); details: TBID 1 μM, 125 kinase panel, read-out: % activity of the enzyme
Description: as §1, §2

Lck = Lck (Homo sapiens, UniProt P06239); details: TBID 1 μM, 125 kinase panel, read-out: % activity of the enzyme
Description: as §1, §2

IGF-1R = IGF-1R (Homo sapiens, UniProt P08069); details: TBID 1 μM, 125 kinase panel, read-out: % activity of the enzyme
Description: as §1, §2

GCK = GCK (Homo sapiens, UniProt Q12851); details: TBID 1 μM, 125 kinase panel, read-out: % activity of the enzyme
Description: as §1, §2

PRAK = PRAK (Homo sapiens, UniProt Q8IW41); details: TBID 1 μM, 125 kinase panel, read-out: % activity of the enzyme
Description: as §1, §2

SGK1 = SGK1 (Homo sapiens, UniProt O00141); details: TBID 1 μM, 125 kinase panel, read-out: % activity of the enzyme
Description: as §1, §2

SRPK1 = SRPK1 (Homo sapiens, UniProt Q96SB4); details: TBID 1 μM, 125 kinase panel, read-out: % activity of the enzyme
Description: as §1, §2

EF2K = EF2K (Homo sapiens, UniProt O00418); details: TBID 1 μM, 125 kinase panel, read-out: % activity of the enzyme
Description: as §1, §2

NUAK1 = NUAK1 (Homo sapiens, UniProt O60285); details: TBID 1 μM, 125 kinase panel, read-out: % activity of the enzyme
Description: as §1, §2

IRAK1 = IRAK1 (Homo sapiens, UniProt P51617); details: TBID 1 μM, 125 kinase panel, read-out: % activity of the enzyme
Description: as §1, §2

EPH-A2 = EPH-A2 (Homo sapiens, UniProt P29317); details: TBID 1 μM, 125 kinase panel, read-out: % activity of the enzyme
Description: as §1, §2

MLK3 = MLK3 (Homo sapiens, UniProt Q16584); details: TBID 1 μM, 125 kinase panel, read-out: % activity of the enzyme
Description: as §1, §2

PHK = PHK (Homo sapiens, UniProt Q16816); details: TBID 1 μM, 125 kinase panel, read-out: % activity of the enzyme
Description: as §1, §2

Src = Src (Homo sapiens, UniProt P12931); details: TBID 1 μM, 125 kinase panel, read-out: % activity of the enzyme
Description: as §1, §2

VEG-FR = VEG-FR (Homo sapiens, UniProt P17948); details: TBID 1 μM, 125 kinase panel, read-out: % activity of the enzyme
Description: as §1, §2

CK1 = CK1 (Homo sapiens, UniProt P48730); details: TBID 1 μM, 125 kinase panel, read-out: % activity of the enzyme
Description: as §1, §2

MKK1 = MKK1 (Homo sapiens, UniProt Q02750); details: TBID 1 μM, 125 kinase panel, read-out: % activity of the enzyme
Description: as §1, §2

MKK6 = MKK6 (Homo sapiens, UniProt P52564); details: TBID 1 μM, 125 kinase panel, read-out: % activity of the enzyme
Description: as §1, §2

TESK1 = TESK1 (Homo sapiens, UniProt Q15569); details: TBID 1 μM, 125 kinase panel, read-out: % activity of the enzyme
Description: as §1, §2

EPH-B4 = EPH-B4 (Homo sapiens, UniProt P54760); details: TBID 1 μM, 125 kinase panel, read-out: % activity of the enzyme
Description: as §1, §2

TIE2 = TIE2 (Homo sapiens, UniProt Q02763); details: TBID 1 μM, 125 kinase panel, read-out: % activity of the enzyme
Description: as §1, §2

IRAK4 = IRAK4 (Homo sapiens, UniProt Q9NWZ3); details: TBID 1 μM, 125 kinase panel, read-out: % activity of the enzyme
Description: as §1, §2

ASK1 = ASK1 (Homo sapiens, UniProt Q99683); details: TBID 1 μM, 125 kinase panel, read-out: % activity of the enzyme
Description: as §1, §2

T1 sequence (Q9H2X6 whole entry): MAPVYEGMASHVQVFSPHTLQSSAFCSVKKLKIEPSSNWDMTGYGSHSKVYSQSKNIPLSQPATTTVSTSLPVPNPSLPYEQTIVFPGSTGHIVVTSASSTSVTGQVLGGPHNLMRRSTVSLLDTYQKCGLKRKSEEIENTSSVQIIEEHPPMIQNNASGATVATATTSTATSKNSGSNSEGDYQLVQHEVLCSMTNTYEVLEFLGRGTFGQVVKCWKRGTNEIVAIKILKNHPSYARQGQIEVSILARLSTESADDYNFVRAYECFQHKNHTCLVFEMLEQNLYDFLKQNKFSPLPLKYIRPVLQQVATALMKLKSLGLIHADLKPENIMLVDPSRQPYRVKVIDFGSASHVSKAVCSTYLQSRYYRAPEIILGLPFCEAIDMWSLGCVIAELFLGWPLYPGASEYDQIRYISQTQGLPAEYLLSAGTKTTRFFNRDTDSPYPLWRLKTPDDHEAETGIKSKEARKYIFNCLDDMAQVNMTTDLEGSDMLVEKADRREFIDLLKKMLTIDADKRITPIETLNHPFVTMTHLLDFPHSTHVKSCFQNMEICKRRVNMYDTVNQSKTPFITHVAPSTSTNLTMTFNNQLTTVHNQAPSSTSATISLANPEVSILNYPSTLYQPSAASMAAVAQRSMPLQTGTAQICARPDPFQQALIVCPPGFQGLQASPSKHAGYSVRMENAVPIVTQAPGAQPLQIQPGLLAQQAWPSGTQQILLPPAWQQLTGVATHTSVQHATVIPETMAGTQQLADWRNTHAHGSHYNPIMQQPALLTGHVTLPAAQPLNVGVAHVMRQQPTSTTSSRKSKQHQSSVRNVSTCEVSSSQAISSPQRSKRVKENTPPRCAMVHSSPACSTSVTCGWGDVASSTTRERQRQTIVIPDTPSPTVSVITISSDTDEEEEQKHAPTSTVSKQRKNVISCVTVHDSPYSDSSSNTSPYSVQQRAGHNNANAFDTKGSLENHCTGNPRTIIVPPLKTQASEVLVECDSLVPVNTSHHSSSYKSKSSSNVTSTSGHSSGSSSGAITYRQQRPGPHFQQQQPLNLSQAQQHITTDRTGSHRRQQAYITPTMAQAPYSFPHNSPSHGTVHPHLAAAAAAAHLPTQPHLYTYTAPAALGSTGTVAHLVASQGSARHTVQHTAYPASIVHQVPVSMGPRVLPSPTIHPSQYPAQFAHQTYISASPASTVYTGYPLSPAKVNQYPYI
EIF2AK3, sequence (Q9NZJ5 30-1116): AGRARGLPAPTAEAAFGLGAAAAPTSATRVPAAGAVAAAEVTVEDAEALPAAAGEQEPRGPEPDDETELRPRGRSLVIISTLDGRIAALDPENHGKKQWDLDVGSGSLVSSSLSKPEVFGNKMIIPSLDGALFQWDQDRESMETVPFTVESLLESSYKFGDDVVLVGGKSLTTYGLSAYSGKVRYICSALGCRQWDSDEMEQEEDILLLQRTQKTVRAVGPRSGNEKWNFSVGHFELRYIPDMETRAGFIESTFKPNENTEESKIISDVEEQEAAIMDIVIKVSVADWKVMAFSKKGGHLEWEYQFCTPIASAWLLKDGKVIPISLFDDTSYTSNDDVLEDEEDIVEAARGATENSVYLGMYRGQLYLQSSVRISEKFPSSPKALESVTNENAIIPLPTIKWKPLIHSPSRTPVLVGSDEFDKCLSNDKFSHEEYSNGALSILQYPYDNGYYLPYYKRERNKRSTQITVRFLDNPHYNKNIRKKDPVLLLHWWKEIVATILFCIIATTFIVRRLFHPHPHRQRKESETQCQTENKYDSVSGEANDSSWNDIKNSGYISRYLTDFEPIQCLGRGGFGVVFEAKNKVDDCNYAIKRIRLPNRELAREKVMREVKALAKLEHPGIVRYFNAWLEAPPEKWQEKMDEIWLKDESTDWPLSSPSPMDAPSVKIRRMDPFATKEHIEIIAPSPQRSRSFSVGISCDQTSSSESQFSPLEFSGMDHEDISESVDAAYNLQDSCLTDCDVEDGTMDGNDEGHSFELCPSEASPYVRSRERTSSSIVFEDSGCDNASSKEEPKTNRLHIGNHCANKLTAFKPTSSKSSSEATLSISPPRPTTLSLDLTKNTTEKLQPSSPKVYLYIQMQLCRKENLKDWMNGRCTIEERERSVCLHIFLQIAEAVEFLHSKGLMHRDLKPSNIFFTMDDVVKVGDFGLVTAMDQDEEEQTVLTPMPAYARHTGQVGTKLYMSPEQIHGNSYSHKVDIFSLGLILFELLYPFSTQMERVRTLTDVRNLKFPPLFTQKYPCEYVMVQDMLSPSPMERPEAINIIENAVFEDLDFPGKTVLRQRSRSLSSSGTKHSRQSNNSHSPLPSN
PHK, sequence (Q16816 whole entry): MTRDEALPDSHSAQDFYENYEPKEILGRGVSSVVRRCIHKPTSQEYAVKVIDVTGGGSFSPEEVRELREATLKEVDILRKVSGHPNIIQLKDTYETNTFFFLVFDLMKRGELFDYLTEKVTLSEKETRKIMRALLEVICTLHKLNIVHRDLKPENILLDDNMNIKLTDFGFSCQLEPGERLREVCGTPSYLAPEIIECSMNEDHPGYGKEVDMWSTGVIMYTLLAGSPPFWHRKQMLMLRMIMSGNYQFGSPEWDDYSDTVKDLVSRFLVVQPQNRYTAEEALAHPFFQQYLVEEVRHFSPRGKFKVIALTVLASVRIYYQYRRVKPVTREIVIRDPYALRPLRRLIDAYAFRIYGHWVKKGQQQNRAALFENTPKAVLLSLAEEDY
TESK1, sequence (Q15569 whole entry): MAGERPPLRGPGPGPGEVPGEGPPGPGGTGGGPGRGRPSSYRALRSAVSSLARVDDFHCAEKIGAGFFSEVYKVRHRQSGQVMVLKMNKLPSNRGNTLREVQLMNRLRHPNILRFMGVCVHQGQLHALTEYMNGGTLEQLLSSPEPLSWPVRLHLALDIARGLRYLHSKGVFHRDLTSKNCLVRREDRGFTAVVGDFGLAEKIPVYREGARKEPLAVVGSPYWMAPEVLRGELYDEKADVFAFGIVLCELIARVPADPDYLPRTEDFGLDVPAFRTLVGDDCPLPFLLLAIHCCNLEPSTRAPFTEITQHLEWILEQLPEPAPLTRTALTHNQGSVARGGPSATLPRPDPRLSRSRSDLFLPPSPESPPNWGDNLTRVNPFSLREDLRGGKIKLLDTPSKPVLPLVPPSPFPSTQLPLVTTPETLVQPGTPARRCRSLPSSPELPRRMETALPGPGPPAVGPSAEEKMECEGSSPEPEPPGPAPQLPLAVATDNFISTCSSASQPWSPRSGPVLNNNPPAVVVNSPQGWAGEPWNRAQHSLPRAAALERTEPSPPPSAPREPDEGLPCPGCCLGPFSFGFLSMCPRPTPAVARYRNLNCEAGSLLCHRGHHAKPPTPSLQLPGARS
EPH-B4, sequence (P54760 16-987): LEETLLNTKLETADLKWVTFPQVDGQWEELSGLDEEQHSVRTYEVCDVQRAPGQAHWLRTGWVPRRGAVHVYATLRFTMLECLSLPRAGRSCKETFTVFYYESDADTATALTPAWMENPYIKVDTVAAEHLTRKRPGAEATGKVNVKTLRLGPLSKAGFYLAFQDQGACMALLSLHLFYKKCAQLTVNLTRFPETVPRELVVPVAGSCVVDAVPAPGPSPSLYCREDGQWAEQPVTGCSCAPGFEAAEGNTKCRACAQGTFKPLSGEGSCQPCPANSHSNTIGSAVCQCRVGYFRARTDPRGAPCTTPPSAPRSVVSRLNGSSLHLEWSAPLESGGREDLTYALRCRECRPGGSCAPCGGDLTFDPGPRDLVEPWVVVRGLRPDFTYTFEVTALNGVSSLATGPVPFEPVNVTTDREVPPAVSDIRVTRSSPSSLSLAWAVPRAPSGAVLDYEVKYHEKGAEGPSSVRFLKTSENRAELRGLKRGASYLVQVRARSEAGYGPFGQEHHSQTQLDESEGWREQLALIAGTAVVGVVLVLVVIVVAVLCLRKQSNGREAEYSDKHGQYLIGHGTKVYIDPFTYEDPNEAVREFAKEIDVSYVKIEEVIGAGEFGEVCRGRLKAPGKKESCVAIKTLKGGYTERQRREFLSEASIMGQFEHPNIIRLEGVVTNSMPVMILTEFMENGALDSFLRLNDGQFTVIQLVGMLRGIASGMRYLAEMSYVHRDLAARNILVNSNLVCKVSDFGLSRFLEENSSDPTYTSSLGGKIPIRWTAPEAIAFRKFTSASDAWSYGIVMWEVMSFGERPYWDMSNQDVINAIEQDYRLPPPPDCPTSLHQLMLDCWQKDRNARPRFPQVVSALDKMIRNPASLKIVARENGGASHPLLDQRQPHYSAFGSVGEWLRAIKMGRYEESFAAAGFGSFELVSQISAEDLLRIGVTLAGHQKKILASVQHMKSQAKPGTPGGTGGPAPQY
MKK1, sequence (Q02750 whole entry): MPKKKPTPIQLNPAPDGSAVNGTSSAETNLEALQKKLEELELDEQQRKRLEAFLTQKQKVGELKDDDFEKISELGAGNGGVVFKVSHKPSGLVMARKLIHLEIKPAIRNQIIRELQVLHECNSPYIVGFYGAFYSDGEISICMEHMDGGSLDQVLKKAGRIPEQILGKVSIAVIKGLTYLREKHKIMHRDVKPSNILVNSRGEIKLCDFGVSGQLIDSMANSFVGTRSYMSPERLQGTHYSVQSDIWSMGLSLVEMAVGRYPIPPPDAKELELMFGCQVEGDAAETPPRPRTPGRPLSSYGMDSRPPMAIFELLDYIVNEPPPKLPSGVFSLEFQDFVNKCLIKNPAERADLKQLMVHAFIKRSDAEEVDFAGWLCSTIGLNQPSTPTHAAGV
CK1, sequence (P48730 whole entry): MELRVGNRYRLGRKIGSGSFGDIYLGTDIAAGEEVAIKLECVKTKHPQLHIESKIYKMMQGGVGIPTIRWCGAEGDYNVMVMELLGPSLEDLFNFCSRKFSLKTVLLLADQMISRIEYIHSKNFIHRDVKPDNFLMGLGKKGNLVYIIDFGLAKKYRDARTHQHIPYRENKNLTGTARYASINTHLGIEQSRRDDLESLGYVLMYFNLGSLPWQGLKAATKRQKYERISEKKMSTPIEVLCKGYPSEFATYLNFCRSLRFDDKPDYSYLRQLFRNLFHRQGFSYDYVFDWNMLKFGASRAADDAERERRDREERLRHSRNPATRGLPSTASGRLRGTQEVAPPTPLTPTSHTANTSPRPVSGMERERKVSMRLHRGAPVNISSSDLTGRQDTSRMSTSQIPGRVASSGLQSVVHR

SMILES: O=C1c2c(Br)c(Br)c(Br)c(Br)c2C(=O)N1c1ncc[nH]1 [TBID, 4,5,6,7-Tetrabromo-2-(1H-imidazol-2-yl)isoindoline-1,3-dione]
- activity at 1 µM (BRSK2): 99%
- activity at 1 µM (PKCz): 104%
- activity at 1 µM (EPH-B3): 103%
- activity at 1 µM (PAK5): 105%
- activity at 1 µM (JNK1): 106%
- activity at 1 µM (TrkA): 100%
- activity at 1 µM (EIF2AK3): 107%
- activity at 1 µM (IKKb): 99%
- % activity of the enzyme (AMPK): 87%
- activity at 1 µM (IRR): 100%
- activity at 1 µM (HER4): 91%
- activity at 1 µM (TSSK1): 109%
- activity at 1 µM (PIM3): 101%
- activity at 1 µM (SYK): 108%
- activity at 1 µM (CHK1): 102%
- residual activity (HIPK2; 10 µM TBID, panel of 76 protein kinases): entirely suppressed
- activity at 1 µM (HIPK2; TBID 1 μM, 125 kinase panel, read-out: % activity of the enzyme): 31%
- activity at 1 µM (MST4): 108%
- activity at 1 µM (TTK): 92%
- activity at 1 µM (PKBa): 104%
- activity at 1 µM (CAMK1): 78%
- activity at 1 µM (Lck): 109%
- activity at 1 µM (IGF-1R): 68%
- activity at 1 µM (GCK): 100%
- activity at 1 µM (PRAK): 95%
- activity at 1 µM (SGK1): 98%
- activity at 1 µM (SRPK1): 77%
- activity at 1 µM (EF2K): 111%
- activity at 1 µM (NUAK1): 81%
- activity at 1 µM (IRAK1): 82%
- activity at 1 µM (EPH-A2): 89%
- activity at 1 µM (MLK3): 97%
- activity at 1 µM (PHK): 116%
- activity at 1 µM (Src): 83%
- activity at 1 µM (VEG-FR): 115%
- activity at 1 µM (CK1): 105%
- activity at 1 µM (MKK1): 115%
- activity at 1 µM (MKK6): 90%
- activity at 1 µM (TESK1): 103%
- activity at 1 µM (EPH-B4): 114%
- activity at 1 µM (TIE2): 115%
- activity at 1 µM (IRAK4): 101%
- activity at 1 µM (ASK1): 126%
